From patent US20120225947A1, “RETINAL NEUROPROTECTION BY ION CHANNEL BLOCKERS REGULATED BY THE SUR SUBUNIT” (ASSISTANCE PUBLIQUE - HOPITAUX DE PARIS, priority 2009, published 2012)
Where two headings read alike, the source gives them in different places.

Assays:
retinal cells [1] = assay: NMDA-induced retinal degeneration in the rat, different routes of administration of glibenclamide (Example 2), TUNEL apoptotic cell count; type: in vivo; details: for apoptotic cell count in retinas exposed to NMDA-induced degeneration: 18 hours, vs NMDA+DMSO, FIG. 6; for NMDA-induced retinal cell degeneration (apoptotic cells per field): intravitreal NMDA the same day
Description: (§1) To induce retinal neurodegeneration, the inventors injected N-methyl-D-aspartate (NMDA) into the vitreous body of rats, a recognized model of retinal excitotoxicity in which NMDA, a synthetic glutamate analog, promotes cell death (Crisanti et al., 2006). Present in excess amounts, NMDA hyperactivates neuronal excitatory receptors (NMDA receptors) which become permeable to calcium. Injection of NMDA results in an increase in intracellular calcium levels. Intracellular calcium activates enzymes (phospholipase C, endonucleases, proteases) which degrade cell structures and lead to apoptosis.
Eight-week-old male Wistar rats weighing 320-350 g were used. Rats were maintained in standard animal housing with a 12 hr day/12 hr night cycle at a temperature of 21° C.+1° C. and 55±5% humidity.
Retinal sections were permeabilized by incubation in 0.3% Triton ×100 for 20 minutes at room temperature and then incubated for 1 hour at 37° C. with 50 μL of TUNEL reaction mixture per slide (mixture obtained with 40 μL TUNEL enzyme and 360 μL TUNEL label, solution containing FITC-conjugated nucleotides).
(§2) The amount of cell death by apoptosis and the type of cells concerned were evaluated by the number and intraretinal location of TUNEL-positive nuclei. For each eye, four complete retinal sections taken from the same eye sectors were used for apoptotic cell counts. The total number of apoptotic cells per retina was calculated with reference to the number of fields counted (therefore to retinal length which varies from one area of the retina to another). The mean of these field counts was calculated for an entire retinal section (composed of 7 to 14 fields) and these means, calculated for the different treatment groups, were compared by a nonparametric Mann-Whitney test with significance at p<0.05.
Eight groups of 2 rats were used. Both eyes of each animal received identical treatment. Three routes of administration of glibenclamide were tested: intravitreal route (1 ng or 0.01 ng injected in each eye), oral route (10 mg/kg body weight) and subconjunctival route (1 ng glibenclamide injected in each eye).
The glibenclamide stock solution for the intravitreal and subconjunctival injections was obtained by diluting 4.5 mg glibenclamide in 300 μL of pure DMSO. This solution was then frozen. The glibenclamide solutions at different concentrations used for the intravitreal and subconjunctival injections were obtained by dilution in BSS® buffer (Alcon) immediately before use.
The glibenclamide solutions for oral administration (10 mg/kg) were obtained by dissolving 8 mg glibenclamide in […] DMSO and 1030 μL of water to give a 6 mg/ml glibenclamide solution, which was administered through a syringe.
Group 1: (n=2, 4 eyes), intravitreal injection of 6 μL of solution containing 45 nM NMDA and 1 ng glibenclamide.
Group 2: (n=2, 4 eyes), intravitreal injection of 6 μL of solution containing 45 nM NMDA and 0.01 ng glibenclamide.
Group 4: (n=2, 4 eyes), oral administration of glibenclamide 10 mg/kg body weight and simultaneous intravitreal injection of 6 μL of 45 nM NMDA. A 7% glucose solution was made available ad libitum to avoid possible hypoglycemia.
Group 6: (n=2, 4 eyes), subconjunctival injection of 50 μL of solution containing 1 ng glibenclamide and simultaneous intravitreal injection of 6 μL of 45 nM NMDA.
18 hours after NMDA and glibenclamide administration, rats were euthanized and the eyes were immediately dissected, fixed in 4% paraformaldehyde and 10% sucrose for 4 hours, then immersed overnight at 4° C. in 15% sucrose in phosphate buffer.
Eyes were then embedded in OCT and cryostat-sectioned (10 μm thick). Sections were labeled by the TUNEL method to detect apoptotic cell death.

retinal cells [2] = type: in vivo; details: vs BSS, P<0.0001, FIG. 10
Description: as §1
Eight-week-old male Wistar rats weighing 320-350 g were used. Rats were maintained in standard animal housing with a 12 hr day/12 hr night cycle at a temperature of 21° C.+1° C. and 55±5% humidity. […]
as §2, with “For each eye, four complete retinal sections taken from the same eye sectors were used for apoptotic cell counts.” left out, “p<0.05. […]” for “p<0.05.”

For `COc1ccc(Cl)cc1C(=O)NCCc1ccc(S(=O)(=O)NC(=O)NC2CCCCC2)cc1` [glibenclamide], the “apoptotic cell count in retinas exposed to NMDA-induced degeneration” value (retinal cells [1]; intravitreal 0.01 ng co-injected with 45 nM NMDA) was “significant decrease”, the “organization of the retinal cell layers (DAPI labeling)” value (retinal cells [1]; intravitreal 0.01 ng co-injected with NMDA, FIG. 7C) was “perfectly conserved” and the “apoptotic cell count in retinas exposed to NMDA-induced degeneration” value (retinal cells [1]; intravitreal 1 ng co-injected with 45 nM NMDA) was “significant decrease”. The “organization of the retinal cell layers (DAPI labeling)” value (retinal cells [1]; intravitreal 1 ng co-injected with NMDA, FIG. 7B) was “perfectly conserved”, the “NMDA-induced retinal cell degeneration (apoptotic cells per field)” value (retinal cells [1]; oral 10 mg/kg, vs DMSO per os, P=0.012, FIG. 8) was “significantly reduced” and the “NMDA-induced retinal cell degeneration (apoptotic cells per field)” value (retinal cells [1]; subconjunctival 1 ng, vs DMSO SCJ, P=0.0002, FIG. 9) was “significantly reduced”. The “protection of retinal cells from NMDA-induced degeneration (apoptotic cells per field)” value (retinal cells [2]; intravitreal 100 ng in BSS 5 days before intravitreal NMDA) was “significantly protected” and the “protection of retinal cells from NMDA-induced degeneration (apoptotic cells per field)” value (retinal cells [2]; intravitreal 100 μg in BSS 5 days before intravitreal NMDA) was “significantly protected”.
